Measured values from patent publication US8778929B2, “Substituted heteroaryl inhibitors of B-RAF” (Boehringer Ingelheim International GmbH, priority 2008, dated 2014).

The compounds below were run against B-Raf (V600E)-kinase (Homo sapiens, UniProt P15056, V600E) (assay: Kinase test B-Raf (V600E)). Details: compound concentration 2 μM; 100% = no inhibition, 0% = total inhibition; read-out: % CTL (residual activity of the enzyme relative to DMSO control).
Type: biochemical
Procedure, shortened: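 Kinase preincubated with compound (typically 2 μM to 0.119 nM or 0.017 nM, 5% DMSO) 1 h at RT, then reacted 60 min at RT with 250 μM ATP and biotinylated MEK1. Phospho-MEK (Ser217/221) captured on streptavidin, detected by europium time-resolved fluorescence; IC50 from dose-response curves.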

Chain of B-Raf (V600E)-kinase (P15056 whole entry V600E): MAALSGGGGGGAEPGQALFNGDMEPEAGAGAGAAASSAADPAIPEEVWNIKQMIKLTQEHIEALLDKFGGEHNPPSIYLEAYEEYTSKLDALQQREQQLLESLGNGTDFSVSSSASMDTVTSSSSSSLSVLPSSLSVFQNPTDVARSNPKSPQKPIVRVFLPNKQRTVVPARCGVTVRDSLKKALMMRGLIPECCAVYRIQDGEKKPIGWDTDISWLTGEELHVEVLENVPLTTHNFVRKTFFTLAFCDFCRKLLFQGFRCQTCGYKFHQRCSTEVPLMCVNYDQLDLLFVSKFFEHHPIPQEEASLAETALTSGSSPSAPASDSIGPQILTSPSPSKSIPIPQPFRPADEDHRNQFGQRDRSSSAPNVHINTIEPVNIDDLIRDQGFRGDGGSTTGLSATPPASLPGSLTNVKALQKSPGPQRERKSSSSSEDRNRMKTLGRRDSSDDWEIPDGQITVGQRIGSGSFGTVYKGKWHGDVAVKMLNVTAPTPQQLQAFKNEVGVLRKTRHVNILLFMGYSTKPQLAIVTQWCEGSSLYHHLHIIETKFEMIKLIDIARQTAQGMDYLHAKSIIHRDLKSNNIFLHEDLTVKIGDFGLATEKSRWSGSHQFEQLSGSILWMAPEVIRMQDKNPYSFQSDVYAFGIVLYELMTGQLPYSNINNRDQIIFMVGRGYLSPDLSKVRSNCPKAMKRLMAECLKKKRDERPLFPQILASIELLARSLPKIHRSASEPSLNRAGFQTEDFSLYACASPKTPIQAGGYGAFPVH

remaining activity at 2 µM | SMILES
7.9% | Cc1ncc(C(=O)Nc2cc(C(C)(C)C)on2)cc1-n1cc(-c2cncc(N3CCN(C(C)(C)C)CC3)c2)nn1 [Example I-167]
9.8% | Cc1ncc(C(=O)Nc2cc(C(C)(C)C)on2)cc1-n1cc(-c2cncc(N3CCN(CCCO)CC3)c2)nn1 [Example I-168]
8.4% | COCCCN1CCN(c2cncc(-c3cn(-c4cc(C(=O)Nc5cc(C(C)(C)C)on5)cnc4C)nn3)c2)CC1 [Example I-169]
7.5% | CCOCCN1CCN(c2cncc(-c3cn(-c4cc(C(=O)Nc5cc(C(C)(C)C)on5)cnc4C)nn3)c2)CC1 [Example I-170]
7.7% | Cc1ncc(C(=O)Nc2cc(C(C)(C)C)on2)cc1-n1cc(-c2cncc(N3CCN(CC(C)C)CC3)c2)nn1 [Example I-171]
8% | CCCCN1CCN(c2cncc(-c3cn(-c4cc(C(=O)Nc5cc(C(C)(C)C)on5)cnc4C)nn3)c2)CC1 [Example I-172]
2.4% | Cc1ncc(C(=O)Nc2cc(C(C)(C)C)on2)cc1-n1cc(-c2cncc(N3CCN(CC4CCCCC4)CC3)c2)nn1 [Example I-173]
8.1% | C=CCN1CCN(c2cncc(-c3cn(-c4cc(C(=O)Nc5cc(C(C)(C)C)on5)cnc4C)nn3)c2)CC1 [Example I-174]
8.1% | Cc1ncc(C(=O)Nc2cc(C(C)(C)C)on2)cc1-n1cc(-c2cncc(N3CCN(CCC#N)CC3)c2)nn1 [Example I-175]
6.7% | Cc1ncc(C(=O)Nc2cc(C(C)(C)C)on2)cc1-n1cc(-c2cncc(N3CCN(CC(=O)N(C)C)CC3)c2)nn1 [Example I-176]
1.9% | Cc1ncc(C(=O)Nc2cc(C(C)(C)C)ncn2)cc1-n1cc(-c2cncc(N3CCN(C)CC3)c2)nn1 [Example I-177]
2.3% | Cc1ncc(C(=O)Nc2ccnc(C(C)(C)C)c2)cc1-n1cc(-c2cncc(N3CCN(C)CC3)c2)nn1 [Example I-178]
2.6% | Cc1ncc(C(=O)Nc2cc(C(C)(C)C)on2)cc1-n1cc(-c2cncc(N3CCN(CCO)CC3)c2)nn1 [Example I-179]
2.9% | Cc1ncc(C(=O)Nc2cc(C(C)(C)C)no2)cc1-n1cc(-c2cncc(N3CCN(C)CC3)c2)nn1 [Example I-180]
2.3% | Cc1ncc(C(=O)Nc2cc(C(C)(C)C)on2)cc1-n1cc(-c2cncc(N3CCN(CC(F)F)CC3)c2)nn1 [Example I-181]
2.1% | Cc1ncc(C(=O)Nc2cc(C(C)(C)C)on2)cc1-n1cc(-c2cncc(N3CCN(CC(F)(F)F)CC3)c2)nn1 [Example I-182]
1.8% | Cc1ncc(C(=O)Nc2cc(C(C)(C)C)on2)cc1-n1cc(-c2cncc(N3CCNCC3)c2)nn1 [Example I-183]
2.5% | Cc1ncc(C(=O)Nc2cc(C(C)(C)C)on2)cc1-n1cc(-c2cncc(CN3CCOCC3)c2)nn1 [Example I-184]
1.7% | Cc1ncc(C(=O)Nc2cc(C(C)(C)C)on2)cc1-n1cc(-c2cncc(CN3CCCC3)c2)nn1 [Example I-185]
1.5% | Cc1ncc(C(=O)Nc2cc(C(C)(C)C)on2)cc1-n1cc(-c2cncc(CN3CCN(C)CC3)c2)nn1 [Example I-186]

remaining activity at 2 µM | SMILES
4.1% | Cc1ncc(C(=O)Nc2cc(C(C)(C)C)on2)cc1-n1cc(-c2cncc(CN(C)C)c2)nn1 [Example I-187]
1.5% | CCN1CCN(Cc2cncc(-c3cn(-c4cc(C(=O)Nc5cc(C(C)(C)C)on5)cnc4C)nn3)c2)CC1 [Example I-188]
3.8% | Cc1ncc(C(=O)Nc2cc(C(C)(C)C)on2)cc1-n1cc(-c2cncc(CN3CCC(F)(F)C3)c2)nn1 [Example I-189]
4.1% | Cc1ncc(C(=O)Nc2cc(C(C)(C)C)on2)cc1-n1cc(-c2cncc(CN3CCN(C(C)C)CC3)c2)nn1 [Example I-190]
3% | CCN(C)Cc1cncc(-c2cn(-c3cc(C(=O)Nc4cc(C(C)(C)C)on4)cnc3C)nn2)c1 [Example I-191]
1.9% | Cc1ncc(C(=O)Nc2cc(C(C)(C)C)on2)cc1-n1cc(-c2cncc(CN3CC[C@@H](F)C3)c2)nn1 [Example I-192]
3.6% | Cc1ncc(C(=O)Nc2cc(C(C)(C)C)on2)cc1-n1cc(-c2cncc(CN3CC[C@H](F)C3)c2)nn1 [Example I-193]
2.1% | Cc1ncc(C(=O)Nc2cc(C(C)(C)C)on2)cc1-n1cc(-c2cncc(CN)c2)nn1 [Example I-194]
0.8% | Cc1ncc(C(=O)Nc2cc(C(C)(C)C)on2)cc1-n1cc(-c2cncc(N3CCC4(CCN(C)CC4)CC3)c2)nn1 [Example I-195]
1% | Cc1ncc(C(=O)Nc2cc(C(C)(C)C)on2)cc1-n1cc(-c2cncc(NC3CC(N4CCN(C)CC4)C3)c2)nn1 (centres unmarked) [Example I-196]
1% | Cc1ncc(C(=O)Nc2cc(C(C)(C)C)on2)cc1-n1cc(-c2cncc(N3CCN(CCOC(C)C)CC3)c2)nn1 [Example I-197]
1.7% | Cc1ncc(C(=O)Nc2cc(C(C)(C)C)on2)cc1-n1cc(-c2cncc(N3CCN(CCF)CC3)c2)nn1 [Example I-198]
1.6% | Cc1ncc(C(=O)Nc2cc(C(C)(C)C)on2)cc1-n1cc(-c2cncc(NC3CCN(C(C)C)CC3)c2)nn1 [Example I-199]
1% | Cc1ncc(C(=O)Nc2cc(C(C)(C)C)on2)cc1-n1cc(-c2cncc(N(C)C3CCN(C(C)C)CC3)c2)nn1 [Example I-200]
1.6% | COCCN1CCCN(c2cncc(-c3cn(-c4cc(C(=O)Nc5cc(C(C)(C)C)on5)cnc4C)nn3)c2)CC1 [Example I-201]
1.6% | Cc1ncc(C(=O)Nc2cc(C(C)(C)C)on2)cc1-n1cc(-c2cncc(N3CCCN(C)CC3)c2)nn1 [Example I-202]
1% | CCC(CC)N1CCN(c2cncc(-c3cn(-c4cc(C(=O)Nc5cc(C(C)(C)C)on5)cnc4C)nn3)c2)CC1 [Example I-204]
0.8% | Cc1ncc(C(=O)Nc2cc(C(C)(C)C)on2)cc1-n1cc(-c2cncc(N3CCC(N4CCN(C)CC4)CC3)c2)nn1 [Example I-205]
0.9% | Cc1ncc(C(=O)Nc2cc(C(C)(C)C)on2)cc1-n1cc(-c2cncc(N3CCC(CN4CCOCC4)CC3)c2)nn1 [Example I-206]
4.4% | Cc1ncc(NC(=O)c2cc(N3CCN(C)CC3)cc(C(F)(F)F)c2)cc1-n1cc(-c2cnn(C)c2C)nn1 [XII-1]

remaining activity at 2 µM | SMILES
4.6% | Cc1ncc(NC(=O)c2cc(C(F)(F)F)ccn2)cc1-n1cc(-c2cnn(C)c2C)nn1 [XII-2]
4.7% | Cc1ncc(NC(=O)c2cc(C(C)(C)C)on2)cc1-n1cc(-c2cnn(C)c2C)nn1 [XII-3]
1.8% | Cc1ncc(NC(=O)c2cc(N3CCN(C)CC3)c(F)c(C(F)(F)F)c2)cc1-n1cc(-c2cnn(C)c2C)nn1 [XII-5]
4.7% | Cc1ncc(NC(=O)c2cccc(C(C)(C)C#N)c2)cc1-n1cc(-c2cnn(C)c2C)nn1 [XII-6]
4.7% | COc1ccc(C(=O)Nc2cnc(C)c(-n3cc(-c4cnn(C)c4C)nn3)c2)cc1C(F)(F)F [XII-7]
6.4% | Cc1ncc(NC(=O)c2cccc(OC(F)(F)F)c2)cc1-n1cc(-c2cnn(C)c2C)nn1 [XII-8]
6.6% | Cc1ccc(C(F)(F)F)cc1C(=O)Nc1cnc(C)c(-n2cc(-c3cnn(C)c3C)nn2)c1 [XII-9]
2.5% | Cc1ncc(NC(=O)c2cccc(C(C)(C)C#N)c2)cc1-n1cc(-c2cncnc2)nn1 [XII-10]
5.2% | COc1cncc(-c2cn(-c3cc(NC(=O)c4cccc(C(C)(C)C#N)c4)cnc3C)nn2)c1 [XII-12]
0.9% | Cc1ncc(NC(=O)c2cccc(C(C)(C)C#N)c2)cc1-n1cc(-c2cncc(C#N)c2)nn1 [XII-13]
0.8% | Cc1ncc(NC(=O)c2cc(OC(F)(F)F)cc(N3CCN(C)CC3)c2)cc1-n1cc(-c2cnn(C)c2C)nn1 [XII-15]
0.7% | COc1cncc(-c2cn(-c3cc(NC(=O)c4cc(OC(F)(F)F)cc(N5CCN(C)CC5)c4)cnc3C)nn2)c1 [XII-16]
0.9% | Cc1ncc(NC(=O)c2cc(OC(F)(F)F)cc(N3CCN(C)CC3)c2)cc1-n1cc(-c2cccnc2)nn1 [XII-17]
2.1% | Cc1cn2c(-c3cn(-c4cc(NC(=O)c5cc(N6CCN(C)CC6)c(C)c(C(F)(F)F)c5)cnc4C)nn3)cnc2cn1 [XII-18]
6.5% | CC(=O)Nc1ncc(-c2cn(-c3cc(NC(=O)c4cc(OC(F)(F)F)cc(N5CCN(C)CC5)c4)cnc3C)nn2)s1 [XII-19]
1.6% | Cc1ncc(NC(=O)c2cc(OC(F)(F)F)cc(N(C)CCN(C)C)c2)cc1-n1cc(-c2cnn(C)c2C)nn1 [XII-20]
1.5% | Cc1ncc(NC(=O)c2cc(NCCN(C)C)cc(OC(F)(F)F)c2)cc1-n1cc(-c2cnn(C)c2C)nn1 [XII-21]
3.4% | CCN1CCN(c2cc(OC(F)(F)F)cc(C(=O)Nc3cnc(C)c(-n4cc(-c5cnn(C)c5C)nn4)c3)c2)CC1 [XII-22]
7.2% | Cc1ncc(-c2cn(-c3cc(NC(=O)c4cc(OC(F)(F)F)cc(N5CCN(C)CC5)c4)cnc3C)nn2)s1 [XII-23]
3.8% | COCCN1CCN(c2cc(OC(F)(F)F)cc(C(=O)Nc3cnc(C)c(-n4cc(-c5cnn(C)c5C)nn4)c3)c2)CC1 [XII-24]

Same assay, conditions: measurement at 0.29 μM (*); 100% = no inhibition, 0% = total inhibition; read-out: % CTL (residual activity of the enzyme relative to DMSO control)

remaining activity at 0.29 µM | SMILES
0.9% | CC(=O)Nc1ncc(-c2cn(-c3cc(NC(=O)c4cccc(C(C)(C)C#N)c4)cnc3C)nn2)s1 [XII-14]

Same assay, conditions: measurement at 1.43 μM (***); 100% = no inhibition, 0% = total inhibition; read-out: % CTL (residual activity of the enzyme relative to DMSO control)

remaining activity at 1.43 µM | SMILES
1.5% | Cc1ncc(NC(=O)c2cccc(C(C)(C)C#N)c2)cc1-n1cc(-c2cccnc2)nn1 [XII-11]
